Measurements as given in patent US20230085307A1, “PYRIDAZINONE COMPOUND AND HERBICIDE” (NISSAN CHEMICAL CORPORATION, priority 2019, published 2023).

What was measured:
[1] = system: wild oat; assay: Test Example 5: herbicidal effect by foliage application, plastic box (Table 20, symbol I); type: in vivo, wild oat (Avena fatua); details: amount of applied herbicide 320 g/ha; foliage application after 14-day growth; evaluated three weeks after application
Summary of the method: (§1)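 Foliar spray test: emulsion formulation diluted in water to a set application rate, sprayed onto 14-day-old plants raised in diluvial soil at 25° C to 30° C under glass. Both herbicidal effect and crop effect rated visually three weeks later.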

[2] = system: barnyard grass; assay: Test Example 3: herbicidal effect by foliage application, Wagner pot (Table 18, symbol H); type: in vivo, barnyard grass (Echinochloa crus-galli); details: 320 g/ha
Summary of the method: (§2)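 Plants were sown in alluvial soil held under 0.1–0.5 cm standing water and grown 14 days in a greenhouse at 25–30 °C. An emulsifiable formulation, water-diluted to the set dose, was then sprayed onto the foliage, and effects were scored three weeks later using previously defined criteria.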

[3] = system: Italian ryegrass; assay: Test Example 5: herbicidal effect by foliage application, plastic box (Table 20, symbol K); type: in vivo, Italian ryegrass (Lolium multiflorum); details: amount of applied herbicide 320 g/ha; foliage application after 14-day growth; evaluated three weeks after application
Summary of the method: as §1

[4] = system: chickweed; assay: Test Example 5: herbicidal effect by foliage application, plastic box (Table 20, symbol P); type: in vivo, common chickweed (Stellaria media); details: amount of applied herbicide 320 g/ha; foliage application after 14-day growth; evaluated three weeks after application
Summary of the method: as §1

[5] = system: blackgrass; assay: Test Example 5: herbicidal effect by foliage application, plastic box (Table 20, symbol J); type: in vivo, blackgrass (Alopecurus myosuroides); details: amount of applied herbicide 320 g/ha; foliage application after 14-day growth; evaluated three weeks after application
Summary of the method: as §1

[6] = system: rice flat sedge; assay: Test Example 3: herbicidal effect by foliage application, Wagner pot (Table 18, symbol E); type: in vivo, rice flat sedge (Cyperus iria); details: 320 g/ha
Summary of the method: as §2

[7] = system: windgrass; assay: Test Example 5: herbicidal effect by foliage application, plastic box (Table 20, symbol L); type: in vivo, windgrass (Apera spica-venti); details: amount of applied herbicide 320 g/ha; foliage application after 14-day growth; evaluated three weeks after application
Summary of the method: as §1

[8] = system: persian speedwell; assay: Test Example 4: herbicidal effect by soil treatment (Table 19, symbol R); type: in vivo, Persian speedwell (Veronica persica); details: amount of applied herbicide 320 g/ha
Summary of the method: (§3)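 Step 1: sow seeds in sterilized diluvial soil, cover ~1.5 cm. Step 2: spray diluted emulsion onto soil surface at predetermined rate. Step 3: greenhouse, 25–30° C, three weeks. Step 4: grade effect on each plant by earlier criteria.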

[9] = system: lambsquarters; assay: Test Example 5: herbicidal effect by foliage application, plastic box (Table 20, symbol O); type: in vivo, lambsquarters (Chenopodium album); details: amount of applied herbicide 320 g/ha; foliage application after 14-day growth; evaluated three weeks after application
Summary of the method: as §1

[10] = system: wild oat; assay: Test Example 4: herbicidal effect by soil treatment (Table 19, symbol I); type: in vivo, wild oat (Avena fatua); details: amount of applied herbicide 320 g/ha
Summary of the method: as §3

[11] = system: chickweed; assay: Test Example 4: herbicidal effect by soil treatment (Table 19, symbol P); type: in vivo, common chickweed (Stellaria media); details: amount of applied herbicide 320 g/ha
Summary of the method: as §3

[12] = system: blackgrass; assay: Test Example 4: herbicidal effect by soil treatment (Table 19, symbol J); type: in vivo, blackgrass (Alopecurus myosuroides); details: amount of applied herbicide 320 g/ha
Summary of the method: as §3

[13] = system: Chinese sprangletop; assay: Test Example 3: herbicidal effect by foliage application, Wagner pot (Table 18, symbol D); type: in vivo, chinese sprangletop (Leptochloa chinensis); details: 320 g/ha
Summary of the method: as §2

[14] = system: barnyard grass; assay: Test Example 4: herbicidal effect by soil treatment (Table 19, symbol H); type: in vivo, barnyard grass (Echinochloa crus-galli); details: amount of applied herbicide 320 g/ha
Summary of the method: as §3

[15] = system: redroot pigweed; assay: Test Example 4: herbicidal effect by soil treatment (Table 19, symbol N); type: in vivo, redroot pigweed (Amaranthus retroflexus); details: amount of applied herbicide 320 g/ha
Summary of the method: as §3

[16] = system: redroot pigweed; assay: Test Example 5: herbicidal effect by foliage application, plastic box (Table 20, symbol N); type: in vivo, redroot pigweed (Amaranthus retroflexus); details: amount of applied herbicide 320 g/ha; foliage application after 14-day growth; evaluated three weeks after application
Summary of the method: as §1

[17] = system: southern crabgrass; assay: Test Example 5: herbicidal effect by foliage application, plastic box (Table 20, symbol F); type: in vivo, southern crabgrass (Digitaria ciliaris); details: amount of applied herbicide 320 g/ha; foliage application after 14-day growth; evaluated three weeks after application
Summary of the method: as §1

[18] = system: velvetleaf; assay: Test Example 4: herbicidal effect by soil treatment (Table 19, symbol M); type: in vivo, velvetleaf (Abutilon theophrasti); details: amount of applied herbicide 320 g/ha
Summary of the method: as §3

[19] = system: persian speedwell; assay: Test Example 5: herbicidal effect by foliage application, plastic box (Table 20, symbol R); type: in vivo, Persian speedwell (Veronica persica); details: amount of applied herbicide 320 g/ha; foliage application after 14-day growth; evaluated three weeks after application
Summary of the method: as §1

[20] = system: Japanese bulrush; assay: Test Example 2: herbicidal activity, application during weed generation under submerged conditions (Table 17, symbol B); type: in vivo, Japanese bulrush (Schoenoplectus juncoides); details: AAH 320 g/ha; application during weed generation, submerged conditions
Summary of the method: (§4)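 Mixed weed seedlings in alluvial soil under a 4 cm water layer, greenhouse-grown at 25–30° C. Compound given as a diluted emulsion into the floodwater at the 1–2 leaf stage; response graded after three weeks.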

[21] = system: barnyard grass; assay: Test Example 5: herbicidal effect by foliage application, plastic box (Table 20, symbol H); type: in vivo, barnyard grass (Echinochloa crus-galli); details: amount of applied herbicide 320 g/ha; foliage application after 14-day growth; evaluated three weeks after application
Summary of the method: as §1

[22] = system: velvetleaf; assay: Test Example 5: herbicidal effect by foliage application, plastic box (Table 20, symbol M); type: in vivo, velvetleaf (Abutilon theophrasti); details: amount of applied herbicide 320 g/ha; foliage application after 14-day growth; evaluated three weeks after application
Summary of the method: as §1

[23] = system: southern crabgrass; assay: Test Example 4: herbicidal effect by soil treatment (Table 19, symbol F); type: in vivo, southern crabgrass (Digitaria ciliaris); details: amount of applied herbicide 320 g/ha
Summary of the method: as §3

[24] = system: Italian ryegrass; assay: Test Example 4: herbicidal effect by soil treatment (Table 19, symbol K); type: in vivo, Italian ryegrass (Lolium multiflorum); details: amount of applied herbicide 320 g/ha
Summary of the method: as §3

[25] = system: windgrass; assay: Test Example 4: herbicidal effect by soil treatment (Table 19, symbol L); type: in vivo, windgrass (Apera spica-venti); details: amount of applied herbicide 320 g/ha
Summary of the method: as §3

[26] = system: late watergrass; assay: Test Example 2: herbicidal activity, application during weed generation under submerged conditions (Table 17, symbol A); type: in vivo, late watergrass (Echinochloa oryzicola); details: AAH 320 g/ha; application during weed generation, submerged conditions
Summary of the method: as §4

[27] = system: green foxtail; assay: Test Example 4: herbicidal effect by soil treatment (Table 19, symbol G); type: in vivo, green foxtail (Setaria viridis); details: amount of applied herbicide 320 g/ha
Summary of the method: as §3

[28] = system: oval-leafed pondweed; assay: Test Example 2: herbicidal activity, application during weed generation under submerged conditions (Table 17, symbol C); type: in vivo, oval-leafed pondweed (Monochoria vaginalis); details: AAH 320 g/ha; application during weed generation, submerged conditions
Summary of the method: as §4

[29] = system: green foxtail; assay: Test Example 5: herbicidal effect by foliage application, plastic box (Table 20, symbol G); type: in vivo, green foxtail (Setaria viridis); details: amount of applied herbicide 320 g/ha; foliage application after 14-day growth; evaluated three weeks after application
Summary of the method: as §1

[30] = system: lambsquarters; assay: Test Example 4: herbicidal effect by soil treatment (Table 19, symbol O); type: in vivo, lambsquarters (Chenopodium album); details: amount of applied herbicide 320 g/ha
Summary of the method: as §3

In the case of `Cc1nn(C)c(=O)c(-c2c(-c3ccc(F)cc3)sc3cc(Cl)c(Cl)cc23)c1O` [5-039], the “Herbicidal effect by foliage application, I: wild oat” value [1] is reported as 5 (Herbicidal rate of 90% or more (almost completely withered)), the “herbicidal effect on barnyard grass (H)” value [2] is reported as 4 (Herbicidal rate of 70% or more and less than 90%) and the “Herbicidal effect by foliage application, K: Italian ryegrass” value [3] is reported as 4 (Herbicidal rate of 70% or more and less than 90%). The “Herbicidal effect by foliage application, P: chickweed” value [4] was 5 (Herbicidal rate of 90% or more (almost completely withered)), the “Herbicidal effect by foliage application, J: blackgrass” value [5] was 4 (Herbicidal rate of 70% or more and less than 90%) and the “herbicidal effect on rice flat sedge (E)” value [6] was 5 (Herbicidal rate of 90% or more (almost completely withered)). The “Herbicidal effect by foliage application, L: windgrass” value [7] was 5 (Herbicidal rate of 90% or more (almost completely withered)), the “R: persian speedwell, herbicidal effect grade” value [8] was 0 (Herbicidal rate of 5% or less (almost no effect)) and the “Herbicidal effect by foliage application, O: lambsquarters” value [9] was 5 (Herbicidal rate of 90% or more (almost completely withered)). The “I: wild oat, herbicidal effect grade” value [10] was 0 (Herbicidal rate of 5% or less (almost no effect)), the “P: chickweed, herbicidal effect grade” value [11] was 0 (Herbicidal rate of 5% or less (almost no effect)) and the “J: blackgrass, herbicidal effect grade” value [12] was 0 (Herbicidal rate of 5% or less (almost no effect)). For the same compound, the “herbicidal effect on Chinese sprangletop (D)” value [13] was 3 (Herbicidal rate of 40% or more and less than 70%), the “H: barnyard grass, herbicidal effect grade” value [14] was 0 (Herbicidal rate of 5% or less (almost no effect)) and the “N: redroot pigweed, herbicidal effect grade” value [15] was 3 (Herbicidal rate of 40% or more and less than 70%). The “Herbicidal effect by foliage application, N: redroot pigweed” value [16] was 5 (Herbicidal rate of 90% or more (almost completely withered)), the “Herbicidal effect by foliage application, F: southern crabgrass” value [17] was 4 (Herbicidal rate of 70% or more and less than 90%) and the “M: velvetleaf, herbicidal effect grade” value [18] was 0 (Herbicidal rate of 5% or less (almost no effect)). For the same compound, the “Herbicidal effect by foliage application, R: persian speedwell” value [19] was 4 (Herbicidal rate of 70% or more and less than 90%), the “herbicidal effect rating, B: Japanese bulrush” value [20] was 0 (Herbicidal rate of 5% or less (almost no effect)) and the “Herbicidal effect by foliage application, H: barnyard grass” value [21] was 4 (Herbicidal rate of 70% or more and less than 90%). The “Herbicidal effect by foliage application, M: velvetleaf” value [22] was 3 (Herbicidal rate of 40% or more and less than 70%), the “F: southern crabgrass, herbicidal effect grade” value [23] was 0 (Herbicidal rate of 5% or less (almost no effect)) and the “K: Italian ryegrass, herbicidal effect grade” value [24] was 0 (Herbicidal rate of 5% or less (almost no effect)). For the same compound, the “L: windgrass, herbicidal effect grade” value [25] was 0 (Herbicidal rate of 5% or less (almost no effect)), the “herbicidal effect rating, A: late watergrass” value [26] was 3 (Herbicidal rate of 40% or more and less than 70%) and the “G: green foxtail, herbicidal effect grade” value [27] was 0 (Herbicidal rate of 5% or less (almost no effect)). For the same compound, the “herbicidal effect rating, C: oval-leafed pondweed” value [28] was 0 (Herbicidal rate of 5% or less (almost no effect)), the “Herbicidal effect by foliage application, G: green foxtail” value [29] was 5 (Herbicidal rate of 90% or more (almost completely withered)) and the “O: lambsquarters, herbicidal effect grade” value [30] was 1 (Herbicidal rate of 5% or more and less than 20%).
